Results from patent publication US20250197373A1, “SMALL MOLECULE COMPOUND OR SALT THEREOF OR SOLVATE OF THEM, GUANINE NUCLEOTIDE-BINDING PROTEIN G(Q) SUBUNIT ALPHA (GNAQ) INHIBITOR CONTAINING THE SAME AND METHOD FOR TREATING AND/OR PREVENTING CANCER” (INDUSTRIAL TECHNOLOGY RESEARCH INSTITUTE, priority 2023, published 2025).

Tested on: MDA-MB-231
Assay: Inhibition of growth of triple-negative breast cancer cells MDA-MB-231 (PrestoBlue)
Type: cell-based
Details: Homo sapiens, 168 h, 7 days culture, 2% fetal bovine serum, read-out: Inhibitory activity (evaluated by IC50)
Experimental: Triple-negative breast cancer cells, MDA-MB-231 and MDA-MB-231-OE-GNAQ (T96S) (additionally expressing GNAQ (T96S)) were cultured in L-15 medium and in a temperature-controlled incubator without need of additional offer of 5% carbon dioxide.
1×10^3 of the cells mentioned above were seeded in a 96-well plate, placed in a temperature-controlled incubator and cultured overnight (at least 16 hours).
After overnight incubation, the supernatant was removed. Next, after 200 μL of cell culture medium (containing 2% fetal bovine serum) containing different concentrations of test compound was added to each well of the 96-well plate, the 96-well plate was placed in a 37° C. incubator for 7 days further culture. After that, an additional 30 μL of diluted PrestoBlue™ Cell Viability Reagent (Catalog Number: A13261; Thermo Fisher Scientific) (4 μL stock solution and 26 μL culture medium) was added to each well of the 96-well plate and the reaction was continued for further about 1 hour.
Finally, the fluorescence value at the wavelength of 535/615 nm of each well was read with a plate enzyme immunoassay analyzer, and the inhibitory rate of the compound on triple-negative breast cancer cells were calculated using the following formula.
Moreover, the half maximal inhibitory concentration (IC50) of the compound on the growth of triple-negative breast cancer cells was calculated with the inhibitory rate of compound on triple-negative breast cancer cells at each concentration through the online half maximal inhibitory concentration (IC50) calculation software, IC50 Calculator, provided by AAT Bioquest company on its website (https://www.aatbio.com/tools/ic50-calculator).
Finally, the inhibition of the compound on the growth of triple-negative breast cancer cells was evaluated by the calculated half maximal inhibitory concentration (IC50) of the compound on the growth of triple-negative breast cancer cells.
The inhibition of the compound on the growth of triple-negative breast cancer cells was evaluated by the half maximal inhibitory concentration (IC50) of the compound (one of Compound 1 to Compound 15 prepared above) on the growth of triple-negative breast cancer cells through the human triple-negative breast cancer cell lines MDA-MB-231 and MDA-MB-231-OE-GNAQ (T96S) (additionally expressing GNAQ (T96S)).

Structure (SMILES) | IC50
O=C(Nc1ccc(-c2ccnc(-c3ccncc3)n2)cc1)Nc1ccc(Cl)c(C(F)(F)F)c1 [Compound 6] | 2500 to 5000 nM
N#Cc1cccc(-c2cccc(-c3ccc(NC(=S)Nc4cc(Cl)nc(Cl)c4)cc3)n2)c1 [Compound 11] | 310 to 2500 nM
O=C(Nc1cccc(-c2ccnc(-c3cccc(C(F)(F)F)c3)n2)c1)Nc1cc(Cl)nc(Cl)c1 [Compound 2] | 310 to 2500 nM
N#Cc1cccc(-c2nccc(-c3cccc(NC(=O)Nc4cc(Cl)nc(Cl)c4)c3)n2)c1 [Compound 3] | 310 to 2500 nM
O=C(Nc1ccc(-c2nc(-c3ccccc3)ncc2Cl)cc1)Nc1cc(Cl)nc(Cl)c1 [Compound 15] | 310 to 2500 nM
O=C(Nc1ccc(-c2cccc(-c3ccncc3)n2)cc1)Nc1ccc(Cl)c(C(F)(F)F)c1 [Compound 12] | 310 to 2500 nM
O=C(Nc1cccc(-c2cc(-c3cccc(C(F)(F)F)c3)ncn2)c1)Nc1cc(Cl)nc(Cl)c1 [Compound 14] | 310 to 2500 nM
O=C(Nc1cccc(-c2ccnc(-c3cccc(C(F)(F)F)c3)n2)c1)c1cc(Cl)nc(Cl)c1 [Compound 5] | 310 to 2500 nM
O=C(Nc1cccc(-c2ccnc(-c3ccc(F)c(F)c3)n2)c1)Nc1cc(Cl)nc(Cl)c1 [Compound 4] | 310 to 2500 nM
O=C(Nc1cccc(-c2ccnc(-c3ccnc(Cl)c3)n2)c1)Nc1cc(Cl)nc(Cl)c1 [Compound 1] | 310 to 2500 nM
O=C(Nc1cccc(-c2cccc(-c3ccncc3)n2)c1)Nc1cc(Cl)nc(Cl)c1 [Compound 13] | 310 to 2500 nM
O=C(Nc1ccc(-c2ccnc(-c3cccc(C(F)(F)F)c3)n2)cc1)Nc1cc(Cl)nc(Cl)c1 [Compound 7] | 310 to 2500 nM
O=C(Nc1ccc(-c2ccnc(-c3cccc(C(F)(F)F)c3)n2)cc1)Nc1ccc(Cl)c(C(F)(F)F)c1 [Compound 8] | 310 to 2500 nM
FC(F)(F)c1cccc(-c2cccc(-c3ccc(NC(=S)Nc4cc(Cl)nc(Cl)c4)cc3)n2)c1 [Compound 10] | 310 to 2500 nM
O=C(Nc1ccc(-c2cccc(-c3cccc(C(F)(F)F)c3)n2)cc1)Nc1cc(Cl)nc(Cl)c1 [Compound 9] | 310 to 2500 nM
